“Also recorded” adds a separate entry of the source.
Legend:
α-L-Fucosidase = type: biochemical; conditions: substrate incubated with α-L-Fucosidase
β-Galactosidase = conditions: substrate incubated with β-Galactosidase
β-Glucuronidase = conditions: substrate incubated with β-Glucuronidase
[1] = tested on: membrane free soluble N1 NA (strain H5N1 A/Anhui/1/2005); type: biochemical, influenza virus; conditions: 10 ng antiviral premixed 30 min before SG1
[2] = tested on: N2 NA (strain A/Babol/36/2005); experiment: Electrochemical assay, 3 electrode system: SG1 cleavage and drug susceptibility; type: biochemical, influenza virus; conditions: 10 ng antiviral premixed 30 min before SG1
H1N1 A/Brisbane/59/2007 = experiment: as above; type: biochemical, Influenza A virus; conditions: 10 ng antiviral premixed 30 min before SG1
H3N2 A/Aichi/2/1968 = experiment: as above; type: biochemical, Influenza A virus; conditions: 10 ng antiviral premixed 30 min before SG1
H3N2 A/HongKong/8/68 = experiment: as above; type: biochemical, Influenza A virus; conditions: 10 ng antiviral premixed 30 min before SG1
α-Mannosidase = type: biochemical; conditions: substrate incubated with α-Mannosidase
[3] = tested on: β-N-Acetylglucosaminidase; type: biochemical; conditions: substrate incubated with β-N-Acetylglucosaminidase

## CC1O[C@@H](OCC2OC(O)C(O)[C@@H](O)[C@@H]2O)C(O)[C@@H](O)[C@@H]1O (some centres unmarked) [Substrate 25]
α-L-Fucosidase
  i, value of electrochemical assay: 44.5 ± 2.9 10^−8 A

## OCC1O[C@@H](OCc2ccc(O[C@@H]3OC(CO)[C@H](O)[C@H](O)C3O)cc2)C(O)[C@@H](O)[C@@H]1O (some centres unmarked) [Substrate 21]
β-Galactosidase
  i, value of electrochemical assay: 77.9 ± 7.3 10^−8 A
β-Glucuronidase
  i, value of electrochemical assay: 10.4 ± 1.3 10^−8 A

## CCOC(=O)C1=C[C@@H](OC(CC)CC)[C@H](NC(C)=O)[C@@H](N)C1 [Oseltamivir]
[1]
  inhibition of NA (glucose release from SG1) by antiviral: completely inhibited
[2]
  inhibition of NA (glucose release from SG1) by antiviral: completely inhibited
H1N1 A/Brisbane/59/2007
  inhibition of NA (glucose release from SG1) by antiviral: completely inhibited; also recorded: Glucose was not released
H3N2 A/Aichi/2/1968
  inhibition of NA (glucose release from SG1) by antiviral: completely inhibited; also recorded: Glucose was not released
H3N2 A/HongKong/8/68
  inhibition of NA (glucose release from SG1) by antiviral: completely inhibited; also recorded: Glucose was not released

## OCC1O[C@@H](OCc2ccc(O[C@H]3OC(CO)[C@@H](O)[C@H](O)C3O)cc2)C(O)[C@@H](O)[C@@H]1O (some centres unmarked) [Substrate 20]
α-Mannosidase
  i, value of electrochemical assay: 81.0 ± 1.8 10^−8 A
β-Galactosidase
  i, value of electrochemical assay: 10.2 ± 0.6 10^−8 A

## CC(=O)NC1[C@H](Oc2ccc(CO[C@@H]3OC(CO)[C@@H](O)[C@H](O)C3O)cc2)OC(CO)[C@@H](O)[C@@H]1O (some centres unmarked) [Substrate 23]
[3]
  i, value of electrochemical assay: 28.5 ± 4.0 10^−8 A

From patent US10408783B2, “Electrochemical methods and compounds for the detection of enzymes” (GEORGIA STATE UNIVERSITY RESEARCH FOUNDATION, INC., priority 2014, dated 2019)
